Patent US20230077362A1 (CORTEVA AGRISCIENCE LLC, priority 2019, published 2023)
Read-outs that look alike come from different tables or passages of the source.

Key:
[1] = test system: Beet Armyworm (Spodoptera exigua) ("BAW"), second instar larvae; test: Bioassay on beet armyworm (BAW), 128-well diet tray assay; type: in vivo; settings: Spodoptera exigua
Protocol: (§1) Certain molecules disclosed in this document were tested against BAW and CL using procedures described in the following examples. In the reporting of the results, the “BAW & CL Rating Table” was used (See Table Section).
(§2) Trays were covered with a clear self-adhesive cover and held at 25° C., 14:10 light-dark cycle for five to seven days. Percent mortality was recorded for the larvae in each well; activity in the eight wells was then averaged. The results are indicated in the table entitled “Table ABC: Biological Results” (See Table Section).

[2] = test system: Cabbage Looper (Trichoplusia ni) ("CL"), second instar larvae; test: Bioassay on cabbage looper (CL), 128-well diet tray assay; type: in vivo; settings: Trichoplusia ni
Protocol: as §1, §2

[3] = read-out: BAW (Biological Results, rating)
[4] = read-out: CL (Biological Results, rating)

SMILES | pest or weed control at 50 µg/cm2 [1, 3] [%] | pest or weed control at 50 µg/cm2 [2, 4] [%] | pest or weed control at 50 µg/cm2 ([2]; read-out: CL rating) [%] | pest or weed control at 50 µg/cm2 ([1]; read-out: BAW rating) [%]
Cc1ccc(C(F)(F)F)c(N2C(=O)CS/C2=N\C(=O)NC(C)Cc2ccc(-c3ncn(-c4ccc(OC(F)(F)F)cc4)n3)cc2)c1 (stereo not shown) [Compound H4] | 50 to 100 | 50 to 100 |  | 
O=C(/N=C1\SCC(=O)N1c1cc(Cl)ccc1C(F)(F)F)NCC(F)c1ccc(-c2ncn(-c3ccc(OC(F)(F)F)cc3)n2)cc1 (stereo not shown) [Compound H6] | 50 to 100 | 50 to 100 |  | 
N#CC(CNC(=O)/N=C1\SCC(=O)N1c1cc(Cl)ccc1C(F)(F)F)c1ccc(-c2ncn(-c3ccc(OC(F)(F)F)cc3)n2)cc1 (stereo not shown) [Compound H8, (Z)-1-(3-(5-chloro-2-(trifluoromethyl)phenyl)-4-oxothiazolidin-2-ylidene)-3-(2-cyano-2-(4-(1-(4-(trifluoromethoxy)phenyl)-1H-1,2,4-triazol-3-yl)phenyl)ethyl)urea] | 50 to 100 | 50 to 100 |  | 
O=C(/N=C1\SCC(=O)N1c1ccccc1C(F)(F)F)Nc1ccc(-c2ncn(-c3ccc(OC(F)(F)F)cc3)n2)cc1 [Compound H10] | 50 to 100 | 50 to 100 |  | 
Cc1ccc(CC(F)(F)F)c(N2C(=O)CS/C2=N\C(=O)NCCc2ccc(-c3ncn(-c4ccc(OC(F)(F)F)cc4)n3)cc2)c1 [Compound H12] | 50 to 100 | 50 to 100 |  | 
Cc1ccc(CC(F)(F)F)c(N2C(=O)CS/C2=N\C(=O)NCC(F)c2ccc(-c3ncn(-c4ccc(OC(F)(F)F)cc4)n3)cc2)c1 (stereo not shown) [Compound H13] | 50 to 100 | 50 to 100 |  | 
COc1ccc(CC(F)(F)F)c(N2C(=O)CS/C2=N\C(=O)NC(C)Cc2ccc(-c3ncn(-c4ccc(OC(F)(F)F)cc4)n3)cc2)c1 (stereo not shown) [Compound H15] | 50 to 100 | 50 to 100 |  | 
COc1ccc(CC(F)(F)F)c(N2C(=O)CS/C2=N\C(=O)NCC(F)c2ccc(-c3ncn(-c4ccc(OC(F)(F)F)cc4)n3)cc2C)c1 (stereo not shown) [Compound H16] | 50 to 100 | 50 to 100 |  | 
COc1ccc(CC(F)(F)F)c(N2C(=O)CS/C2=N\C(=O)NCC(F)c2ccc(-c3ncn(-c4ccc(OC(F)(F)F)cc4)n3)c(OC)c2)c1 (stereo not shown) [Compound H17] | 50 to 100 | 50 to 100 |  | 
Cc1ccc(C(C)C)c(N2C(=O)CS/C2=N\C(=O)Nc2ccc(-c3ncn(-c4ccc(OC(F)(F)C(F)(F)F)cc4)n3)c(C)c2)c1 [Compound J2] | 50 to 100 | 50 to 100 |  | 
Cc1ccc(C(C)C)c(N2C(=O)CS/C2=N\C(=O)Nc2ccc(-c3ncn(-c4ccc(C(F)(F)F)cc4)n3)c(C)c2)c1 [Compound J4, (Z)-1-(3-(2-Isopropyl-5-methylphenyl)-4-oxothiazolidin-2-ylidene)-3-(3-methyl-4-(1-(4-(trifluoromethyl)phenyl)-1H-1,2,4-triazol-3-yl)phenyl)urea] | 50 to 100 | 50 to 100 |  | 
COc1ccc(C(C)C)c(N2C(=O)CS/C2=N\C(=O)Nc2ccc(-c3ncn(-c4ccc(C(F)(F)F)cc4)n3)c(C)c2)c1 [Compound J5, (Z)-1-(3-(2-Isopropyl-5-methoxyphenyl)-4-oxothiazolidin-2-ylidene)-3-(3-methyl-4-(1-(4-(trifluoromethyl)phenyl)-1H-1,2,4-triazol-3-yl)phenyl)urea] | 50 to 100 | 50 to 100 |  | 
COc1ccc(C(C)C)c(N2C(=O)CS/C2=N\C(=O)Nc2ccc(-c3ncn(-c4ccc(OC(F)(F)F)cc4)n3)cc2OC)c1 [Compound J6, (Z)-1-(3-(2-Isopropyl-5-methoxyphenyl)-4-oxothiazolidin-2-ylidene)-3-(2-methoxy-4-(1-(4-(trifluoromethoxy)phenyl)-1H-1,2,4-triazol-3-yl)phenyl)urea] | 50 to 100 | 50 to 100 |  | 
COc1ccc(C(C)C)c(N2C(=O)CS/C2=N\C(=O)Nc2ccc(-c3ncn(-c4ccc(OC(F)(F)C(F)(F)F)cc4)n3)c(C)c2)c1 [Compound J7, (Z)-1-(3-(2-Isopropyl-5-methoxyphenyl)-4-oxothiazolidin-2-ylidene)-3-(3-methyl-4-(1-(4-(perfluoroethoxy)phenyl)-1H-1,2,4-triazol-3-yl)phenyl)urea] | 50 to 100 | 50 to 100 |  | 
COc1ccc(C(C)C)c(N2C(=O)CS/C2=N\C(=O)Nc2ccc(-c3ncn(-c4ccc(C(F)(F)F)cc4)n3)cc2C)c1 [Compound J8, (Z)-1-(3-(2-Isopropyl-5-methoxyphenyl)-4-oxothiazolidin-2-ylidene)-3-(2-methyl-4-(1-(4-(trifluoromethyl)phenyl)-1H-1,2,4-triazol-3-yl)phenyl)urea] | 50 to 100 | 50 to 100 |  | 
COc1ccc(C(C)C)c(N2C(=O)CS/C2=N\C(=O)Nc2ccc(-c3ncn(-c4ccc(C(F)(F)F)cc4)n3)cc2OC)c1 [Compound J10, (Z)-1-(3-(2-Isopropyl-5-methoxyphenyl)-4-oxothiazolidin-2-ylidene)-3-(2-methoxy-4-(1-(4-(trifluoromethyl)phenyl)-1H-1,2,4-triazol-3-yl)phenyl)urea] | 50 to 100 | 50 to 100 |  | 
COc1ccc(C(C)C)c(N2C(=O)CS/C2=N\C(=O)Nc2ccc(-c3ncn(-c4ccc(C(F)(F)F)cc4)n3)cc2F)c1 [Compound J11, (Z)-1-(2-Fluoro-4-(1-(4-(trifluoromethyl)phenyl)-1H-1,2,4-triazol-3-yl)phenyl)-3-(3-(2-isopropyl-5-methoxyphenyl)-4-oxothiazolidin-2-ylidene)urea] | 50 to 100 | 50 to 100 |  | 
Cc1ccc(OCC(F)(F)F)c(N2C(=O)CS/C2=N\C(=O)Nc2ccc(-c3ncn(-c4ccc(OC(F)(F)F)cc4)n3)cc2O)c1 [Compound J176, (Z)-1-(2-Hydroxy-4-(1-(4-(trifluoromethoxy)phenyl)-1H-1,2,4-triazol-3-yl)phenyl)-3-(3-(5-methyl-2-(2,2,2-trifluoroethoxy)phenyl)-4-oxothiazolidin-2-ylidene)urea] | 0 to 50 |  |  | 
COC(C)c1ccc(C)cc1N1C(=O)CS/C1=N\C(=O)Nc1ccc(-c2ncn(-c3ccc(C(F)(F)F)cn3)n2)cc1C(C)=O (stereo not shown) [Compound J416, (Z)-1-(2-Acetyl-4-(1-(5-(trifluoromethyl)pyridin-2-yl)-1H-1,2,4-triazol-3-yl)phenyl)-3-(3-(2-(1-methoxyethyl)-5-methylphenyl)-4-oxothiazolidin-2-ylidene)urea] |  |  | 50 to 100 | 
CC(=O)c1cc(-c2ncn(-c3ccc(C(F)(F)F)cn3)n2)ccc1NC(=O)/N=C1\SCC(=O)N1c1cc(C)ccc1COCC(F)(F)F [Compound J418, (Z)-1-(2-Acetyl-4-(1-(5-(trifluoromethyl)pyridin-2-yl)-1H-1,2,4-triazol-3-yl)phenyl)-3-(3-(5-methyl-2-((2,2,2-trifluoroethoxy)methyl)phenyl)-4-oxothiazolidin-2-ylidene)urea] |  |  |  | 0 to 50
Cc1ccc(OCCC(F)(F)F)c(N2C(=O)CS/C2=N\C(=O)Nc2ccc(-c3cn(-c4ccc(OC(F)(F)F)cc4)nn3)cc2)c1 [Compound J491, (Z)-1-(3-(5-Methyl-2-(3,3,3-trifluoropropoxy)phenyl)-4-oxothiazolidin-2-ylidene)-3-(4-(1-(4-(trifluoromethoxy)phenyl)-1H-1,2,3-triazol-4-yl)phenyl)urea] |  |  |  | 50 to 100
CN(C)c1ccc(C(F)(F)F)c(N2C(=O)CS/C2=N\C(=O)Nc2ccc(-c3cn(-c4ccc(OC(F)(F)F)cc4)nn3)cc2)c1 [Compound J495, (Z)-1-(3-(5-(Dimethylamino)-2-(trifluoromethyl)phenyl)-4-oxothiazolidin-2-ylidene)-3-(4-(1-(4-(trifluoromethoxy)phenyl)-1H-1,2,3-triazol-4-yl)phenyl)urea] |  |  |  | 0 to 50
Cc1ccc(OCCC(F)(F)F)c(N2C(=O)CS/C2=N\C(=O)Nc2ccc(-c3nnc(-c4ccc(OC(F)(F)F)cc4)s3)cc2F)c1 [Compound J501, (Z)-1-(2-Fluoro-4-(5-(4-(trifluoromethoxy)phenyl)-1,3,4-thiadiazol-2-yl)phenyl)-3-(3-(5-methyl-2-(3,3,3-trifluoropropoxy)phenyl)-4-oxothiazolidin-2-ylidene)urea] |  |  |  | 50 to 100
CCOCc1ccc(C)cc1N1C(=O)CS/C1=N\C(=O)Nc1ccc(-c2nnc(-c3ccc(OC(F)(F)F)cc3)s2)cc1F [Compound J503, (Z)-1-(3-(2-(Ethoxymethyl)-5-methylphenyl)-4-oxothiazolidin-2-ylidene)-3-(2-fluoro-4-(5-(4-(trifluoromethoxy)phenyl)-1,3,4-thiadiazol-2-yl)phenyl)urea] |  |  | 50 to 100 | 
COC(c1ccc(C)cc1N1C(=O)CS/C1=N\C(=O)Nc1ccc(-c2nnc(-c3ccc(OC(F)(F)F)cc3)s2)cc1F)C(F)(F)F (stereo not shown) [Compound J505, (Z)-1-(2-Fluoro-4-(5-(4-(trifluoromethoxy)phenyl)-1,3,4-thiadiazol-2-yl)phenyl)-3-(3-(5-methyl-2-(2,2,2-trifluoro-1-methoxyethyl)phenyl)-4-oxothiazolidin-2-ylidene)urea] |  |  | 50 to 100 | 
O=C(/N=C1\SCC(=O)N1c1cccc(-c2ccccc2)c1)Nc1ccc(-c2ncn(-c3ccc(OC(F)(F)F)cc3)n2)cc1F [Compound J715, (Z)-1-(3-([1,1′-Biphenyl]-3-yl)-4-oxothiazolidin-2-ylidene)-3-(2-fluoro-4-(1-(4-(trifluoromethoxy)phenyl)-1H-1,2,4-triazol-3-yl)phenyl)urea] |  |  |  | 0 to 50
